Data reported in ChEMBL document CHEMBL1155123, “Synthesis and discovery of autophagy inducers for A549 and H460 lung cancer cells, novel 1-(2'-hydroxy-3'-aroxypropyl)-3-aryl-1H-pyrazole-5-carbohydrazide derivatives” (Bioorg Med Chem Lett, 2008).
The source made the active and inactive calls. No cut-off for these calls is given here.

Tests used:
NCI-H460 [1] = assay: Induction of necrosis in human H460 cells assessed as LDH release at 80 uM after 48 hrs; format: functional, cell-based
A549 [2] = assay: Induction of autophagy in human A549 cells assessed as nuclear and acidic compartment morphology at 10 to 80 uM after 24 hrs; format: functional, cell-based
A549 [3] = assay: Antiproliferative activity against human A549 cells assessed as cell viability at 80 uM after 48 hrs by MTT assay; format: functional; conditions: A549, 48 h, read-out: Activity
NCI-H460 [4] = assay: Induction of apoptosis in human H460 cells assessed as nuclear and acidic compartment morphology at 80 uM; format: functional, cell-based
NCI-H460 [5] = assay: Induction of autophagy in human H460 cells assessed as nuclear and acidic compartment morphology at 80 uM after 24 hrs; format: functional, cell-based
A549 [6] = assay: Antiproliferative activity against human A549 cells assessed as cell viability at 40 uM after 48 hrs by MTT assay relative to control; format: functional; conditions: A549, 48 h, read-out: Activity
A549 [7] = assay: Growth inhibition of human A549 cells after 48 hrs by MTT assay; format: functional, cell-based; conditions: A549, 48 h
A549 [8] = assay: Antiproliferative activity against human A549 cells assessed as cell viability at 40 uM after 24 hrs by MTT assay; format: functional; conditions: A549, 24 h, read-out: Activity
A549 [9] = assay: Induction of apoptosis in human A549 cells assessed as nuclear and acidic compartment morphology at 80 uM; format: functional, cell-based
A549 [10] = assay: Induction of necrosis in human A549 cells assessed as LDH release at 80 uM after 24 hrs; format: functional, cell-based
NCI-H460 [11] = assay: Induction of necrosis in human H460 cells assessed as LDH release at 80 uM after 24 hrs; format: functional, cell-based
A549 [12] = assay: Induction of necrosis in human A549 cells assessed as LDH release at 80 uM after 48 hrs; format: functional, cell-based
A549 [13] = assay: Antiproliferative activity against human A549 cells assessed as cell viability at 80 uM after 96 hrs by MTT assay; format: functional; conditions: A549, 96 h, read-out: Activity
HUVEC [14] = assay: Antiproliferative activity against HUVEC assessed as cell viability after 48 hrs by MTT assay; format: cell-based; conditions: human
A549 [15] = assay: Effect on morphological changes in human A549 cells at 10 to 80 uM after 48 hrs; format: functional, cell-based
HUVEC [16] = assay: Antiproliferative activity against HUVEC assessed as cell viability after 24 hrs by MTT assay; format: cell-based; conditions: human
A549 [17] = assay: Induction of autophagy in human A549 cells assessed as nuclear and acidic compartment morphology at 80 uM after 48 hrs; format: functional, cell-based
A549 [18] = assay: Growth inhibition of human A549 cells after 96 hrs by MTT assay; format: functional, cell-based; conditions: A549, 96 h
A549 [19] = assay: Effect on morphological changes in human A549 cells at 10 to 80 uM after 24 hrs; format: functional, cell-based
NCI-H460 [20] = assay: Induction of autophagy in human H460 cells assessed as nuclear and acidic compartment morphology at 80 uM after 48 hrs; format: functional, cell-based
HUVEC [21] = assay: Induction of HUVEC growth at 10 uM after 24 hrs by MTT assay; format: functional, cell-based; conditions: Homo sapiens

IC50 (A549 [7])	IC50 (A549 [18])	SMILES	Activity (NCI-H460 [1])	Activity (A549 [2])	viability at 80 µM (A549 [3])	Activity (NCI-H460 [4])	Activity (NCI-H460 [5])	viability at 40 µM (A549 [6])	viability at 40 µM (A549 [8])	Activity (A549 [9])	Activity (A549 [10])	Activity (NCI-H460 [11])	Activity (A549 [12])	viability at 80 µM (A549 [13])	Activity (A549 [17])	Activity (NCI-H460 [20])	other results
48 µM	30 µM	NNC(=O)c1cc(-c2ccccc2)nn1CC(O)COc1ccc(Cl)cc1 (centres undefined)	inactive	Active	29%	inactive	Active	56%	72%	inactive	inactive	inactive	inactive	6%	Active	Active	Activity (HUVEC [14]): Not Active; Activity (A549 [15]): Active; Activity (HUVEC [16]): Not Active; Activity (A549 [19]): Active
39 µM	35 µM	COc1ccc(-c2cc(C(=O)NN)n(CC(O)COc3ccc(Cl)cc3)n2)cc1 (centres undefined)	inactive	Active		inactive	Active	40%	62%	inactive	inactive	inactive	inactive		Active	Active	
74 µM	40 µM	COc1ccccc1OCC(O)Cn1nc(-c2ccc(Cl)cc2)cc1C(=O)NN (centres undefined)	inactive	Active		inactive	Active			inactive	inactive	inactive	inactive		Active	Active	
72 µM	45 µM	NNC(=O)c1cc(-c2ccccc2)nn1CC(O)COc1ccc([N+](=O)[O-])cc1 (centres undefined)	inactive	Active		inactive	Active			inactive	inactive	inactive	inactive		Active	Active	
70 µM	51 µM	COc1ccc(-c2cc(C(=O)NN)n(CC(O)COc3ccccc3OC)n2)cc1 (centres undefined)	inactive	Active		inactive	Active			inactive	inactive	inactive	inactive		Active	Active	
32 µM	27 µM	NNC(=O)c1cc(-c2ccc(Cl)cc2)nn1CC(O)COc1ccc(Cl)cc1 (centres undefined)	inactive	Active	29%	inactive	Active	56%	72%	inactive	inactive	inactive	inactive	6%	Active	Active	Activity (HUVEC [21]): Active; Activity (HUVEC [14]): Not Active; Activity (A549 [15]): Active; Activity (HUVEC [16]): Not Active; Activity (A549 [19]): Active
39 µM	37 µM	NNC(=O)c1cc(-c2ccc(Cl)cc2)nn1CC(O)COc1ccc([N+](=O)[O-])cc1 (centres undefined)	inactive	Active	29%	inactive	Active	56%	72%	inactive	inactive	inactive	inactive	6%	Active	Active	
72 µM	49 µM	COc1ccccc1OCC(O)Cn1nc(-c2ccccc2)cc1C(=O)NN (centres undefined)	inactive	Active		inactive	Active			inactive	inactive	inactive	inactive		Active	Active	
